Results reported in patent US10662159B2, “ABHD6 and dual ABHD6/MGL inhibitors and their uses” (MAKScientific, LLC, priority 2017, dated 2020).

Key:
Format in all cases: biochemical
hMGL = hMGL (Homo sapiens (Human), UniProt Q99685); test: Fluorescent assay for hMGL (AHMMCE substrate hydrolysis); details: E. coli lysate containing hMGL, read-out: hMGL Inhibition IC50
Procedure: (§1) Certain compounds were tested for their ABHD6 and dual ABHD6/MGL inhibitory activity, which is expressed as % of inhibition or IC50 values in Table 1. The percentage of inhibition describes the percentage by which the inhibitor reduces the velocity/rate of 2-AG hydrolysis by ABHD6, and MGL or AEA hydrolysis by FAAH. […] The lower the IC50 values, the higher its inhibitory activity. A detailed description of the methods used to test inhibitory activity of compounds is given below.
Preparation of Human MAGL (hMAGL)
Fluorescent Assay Protocol for hMGL
This medium throughput assay involved a 96-well plate format in which hMGL activity was monitored by the hydrolysis of the substrate […] (AHMMCE) to form the fluorescent product, coumarin. […] Upon the addition of AHMMCE, the reaction was incubated at 25° C. for 120 min; fluorescence readings were taken every 15 min at 360 nm/460 nm (λexcitation/λemission) using a Synergy HT Plate Reader (Bio-Tek, Winooski, Vt.). […] External standards were used to convert relative fluorescence units to the amount of 4-methylcoumarin formed. All MGL assays were performed in triplicate for each inhibitor concentration, and IC50 values were calculated using Prizm software (GraphPad Software, Inc., San Diego, Calif.).

hFAAH = hFAAH (Homo sapiens (Human), UniProt O00519); test: Fluorescent assay for hFAAH; details: MBP ΔTM hFAAH, procedure as for rFAAH; read-out: hFAAH Inhibition IC50
Procedure: (§2) Certain compounds were tested for their ABHD6 and dual ABHD6/MGL inhibitory activity, which is expressed as % of inhibition or IC50 values in Table 1. The percentage of inhibition describes the percentage by which the inhibitor reduces the velocity/rate of 2-AG hydrolysis by ABHD6, and MGL or AEA hydrolysis by FAAH. The IC50 is the concentration of the inhibitor, which results in 50% inhibition of the velocity/rate of 2-AG hydrolysis by ABHD6 or MGL. The IC50 is the concentration of the inhibitor, which results in 50% inhibition of the velocity/rate of AEA hydrolysis by FAAH. The lower the IC50 values, the higher its inhibitory activity. A detailed description of the methods used to test inhibitory activity of compounds is given below.
Example 80. Preparation of Human FAAH in Fusion with N-Terminal Maltose Binding Tag (MBP ΔTM hFAAH)
Human FAAH without putative transmembrane domain following maltose binding protein was expressed in E. coli cells using pMALcE4 vector Alapafuja et al J. Med. Chem. (2012) 55: 10074-89.
(§3) The fluorescence reading at the 3 hour time point (linear enzyme kinetics) was used to calculate percent inhibition based on control assays without inhibitor present. All FAAH assays were performed in triplicate for each inhibitor concentration, and IC50 values determined using Prizm software (GraphPad Software, Inc.).
Example 82. Fluorescent Assay Protocol for hFAAH
Procedure was followed as described for rFAAH.

hABHD6 = hABHD6 (Homo sapiens (Human), UniProt Q9BV23); test: Fluorescent assay for hABHD6 (AHMMCE substrate hydrolysis); details: membrane fraction containing full-length hABHD6, 20 μM AHMMCE; read-out: ABHD6 Inhibition IC50
Procedure: as §1
Fluorescent Assays Protocol for hABHD6
Initial Fluorescent Inhibition Assay (3-Point)—
In each well of a 96-well plate 8 μL of membrane fraction containing full-length hABHD6 (1 μg total protein) was mixed with 168 μL of assay buffer (50 mM Tris-HCl, pH 7.6), and 20 μL of diluted compound (diluted in a dilution buffer consisting of 50% DMSO/50% assay buffer v/v). Each plate was incubated at RT for 15 minutes before adding 4 μL of 1 mM AHMMCE substrate (final concentration of 20 μM AHMMCE and final volume of 200 μL). The reaction was allowed to proceed for 1 hr at RT before the fluorescence was read at λex 360 nm and λem 460 nm and the inhibition calculated. Each experiment can test 8 compounds at three concentrations (usually 10 μM, 1 μM, and 100 nM).
IC50 Determination Assay (8-Point)—
A more detailed assay with an extended range tests compounds over 8 concentrations depending on the pre-determined approximate IC50 value from the initial screen. […] The assay was conducted in 96 well plate with each well containing the same reaction mixture detailed above in the 3-point screen. The relative fluorescence is quantified into coumarin produced by using a standard curve of HMMC in triplicate on each plate. Results are normalized to the negative control wells and the IC50 is determined using a non-linear regression curve fit in Prism, version 5 (GraphPad, San Diego, Calif.).

Rat ΔTM FAAH = Rat ΔTM FAAH (Rattus norvegicus (Rat), UniProt P97612); test: Fluorescent assay for rat ΔTM FAAH (AAMCA substrate); details: ΔTM rFAAH, AAMCA 20 μM; read-out: rFAAH Inhibition IC50
Procedure: as §2
Example 79. Preparation of Transmembrane Domain-Deleted Rat FAAH (ΔTM rFAAH)
Rat ΔTM FAAH was expressed in E. coli cells and purified using the procedure disclosed by Patricelli et al. Biochemistry (1998) 37: 15177-15187.
Example 81. Fluorescent Assay Protocol for Rat ΔTM FAAH
as §3

Chain of Rat ΔTM FAAH (P97612 30-579): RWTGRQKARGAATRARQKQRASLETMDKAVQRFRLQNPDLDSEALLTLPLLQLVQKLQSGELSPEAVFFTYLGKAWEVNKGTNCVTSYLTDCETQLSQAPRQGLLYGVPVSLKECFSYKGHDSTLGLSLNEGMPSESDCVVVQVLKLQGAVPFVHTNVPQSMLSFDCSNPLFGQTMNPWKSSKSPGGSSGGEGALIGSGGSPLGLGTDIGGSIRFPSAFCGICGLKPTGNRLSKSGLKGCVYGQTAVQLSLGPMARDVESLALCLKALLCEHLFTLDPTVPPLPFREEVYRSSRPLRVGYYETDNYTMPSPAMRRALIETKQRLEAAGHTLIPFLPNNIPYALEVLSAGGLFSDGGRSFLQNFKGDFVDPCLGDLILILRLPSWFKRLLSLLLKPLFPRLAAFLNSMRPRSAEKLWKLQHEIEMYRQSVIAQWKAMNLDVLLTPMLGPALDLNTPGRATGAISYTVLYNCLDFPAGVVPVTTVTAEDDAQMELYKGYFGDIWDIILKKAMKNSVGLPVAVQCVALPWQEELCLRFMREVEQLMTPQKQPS
Chain of hMGL (Q99685 whole entry): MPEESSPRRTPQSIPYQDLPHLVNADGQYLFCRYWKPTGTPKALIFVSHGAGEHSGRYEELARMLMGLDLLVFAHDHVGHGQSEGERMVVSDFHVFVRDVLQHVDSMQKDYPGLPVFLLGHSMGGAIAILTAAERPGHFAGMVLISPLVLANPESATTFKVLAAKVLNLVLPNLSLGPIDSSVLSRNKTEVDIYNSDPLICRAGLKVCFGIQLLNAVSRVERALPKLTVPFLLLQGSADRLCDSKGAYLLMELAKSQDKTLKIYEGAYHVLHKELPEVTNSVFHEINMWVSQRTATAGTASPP
Chain of hABHD6 (Q9BV23 whole entry): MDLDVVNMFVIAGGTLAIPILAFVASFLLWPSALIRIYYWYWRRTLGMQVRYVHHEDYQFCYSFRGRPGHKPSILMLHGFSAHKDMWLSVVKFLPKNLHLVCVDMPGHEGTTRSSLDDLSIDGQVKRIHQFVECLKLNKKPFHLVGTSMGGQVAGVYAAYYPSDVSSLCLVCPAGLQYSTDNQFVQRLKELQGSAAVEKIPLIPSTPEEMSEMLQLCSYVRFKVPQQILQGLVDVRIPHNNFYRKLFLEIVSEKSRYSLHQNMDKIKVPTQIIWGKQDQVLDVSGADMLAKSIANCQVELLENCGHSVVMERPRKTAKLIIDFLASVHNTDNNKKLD
Chain of hFAAH (O00519 30-579): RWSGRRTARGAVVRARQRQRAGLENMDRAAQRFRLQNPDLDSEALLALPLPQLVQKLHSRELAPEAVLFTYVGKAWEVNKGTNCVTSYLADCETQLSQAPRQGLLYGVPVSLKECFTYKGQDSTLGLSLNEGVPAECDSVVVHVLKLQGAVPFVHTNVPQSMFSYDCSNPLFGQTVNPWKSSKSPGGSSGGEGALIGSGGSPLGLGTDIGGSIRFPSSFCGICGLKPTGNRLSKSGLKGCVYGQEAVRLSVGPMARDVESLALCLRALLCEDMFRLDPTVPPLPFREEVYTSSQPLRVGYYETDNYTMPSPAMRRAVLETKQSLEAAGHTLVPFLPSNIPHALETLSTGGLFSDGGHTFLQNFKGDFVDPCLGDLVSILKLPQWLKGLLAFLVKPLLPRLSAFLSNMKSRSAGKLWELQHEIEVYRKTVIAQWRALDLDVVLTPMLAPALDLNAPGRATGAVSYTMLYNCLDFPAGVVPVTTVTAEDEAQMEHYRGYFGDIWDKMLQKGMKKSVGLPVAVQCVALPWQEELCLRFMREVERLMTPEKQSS

| IC50 (hMGL) [µM] | IC50 (hFAAH) [µM] | IC50 (hABHD6) [µM] | IC50 (Rat ΔTM FAAH) [µM] | SMILES |
| --- | --- | --- | --- | --- |
| > 1 | > 1 | > 1 | > 1 | CC1c2ccccc2CCN1C(=O)OC(C(F)(F)F)C(F)(F)F (racemic) [Example 6, 1,1,1,3,3,3-Hexafluoropropan-2-yl 1-methyl-3,4-dihydroisoquinoline-2(1H)-carboxylate] |
| > 1 | > 1 | > 1 | > 1 | CCC1c2ccccc2CCN1C(=O)OC(C(F)(F)F)C(F)(F)F (racemic) [Example 7, 1,1,1,3,3,3-Hexafluoropropan-2-yl 1-ethyl-3,4-dihydroisoquinoline-2(1H)-carboxylate] |
| > 1 | > 1 | 0.01 to 0.1 | > 1 | O=C(OC(C(F)(F)F)C(F)(F)F)N1CCc2ccccc2C1 [Example 1, 1,1,1,3,3,3-Hexafluoropropan-2-yl 3,4-dihydroisoquinoline-2(1H)-carboxylate] |
| > 1 | > 1 | > 1 | > 1 | O=C(OC(C(F)(F)F)C(F)(F)F)N1CCc2ccccc2[C@H]1c1ccccc1 [Example 2, 1,1,1,3,3,3-Hexafluoropropan-2-yl(R)-1-phenyl-3,4-dihydroisoquinoline-2(1H)-carboxylate] |
| > 1 | > 1 | > 1 | > 1 | O=C(OC(C(F)(F)F)C(F)(F)F)N1CCc2ccccc2[C@@H]1c1ccccc1 [Example 3, 1,1,1,3,3,3-Hexafluoropropan-2-yl (S)-1-phenyl-3,4-dihydroisoquinoline-2(1H)-carboxylate] |
| > 1 | > 1 | 0.01 to 0.1 | > 1 | O=C(OC(C(F)(F)F)C(F)(F)F)N1CCc2cccc(Br)c2C1 [Example 4, 1,1,1,3,3,3-Hexafluoropropan-2-yl 8-bromo-3,4-dihydroisoquinoline-2(1H)-carboxylate] |
| > 1 | > 1 | 0.01 to 0.1 | > 1 | O=C(OC(C(F)(F)F)C(F)(F)F)N1Cc2ccc(Br)cc2C1 [Example 8, 1,1,1,3,3,3-Hexafluoropropan-2-yl 5-bromoisoindoline-2-carboxylate] |
| > 1 | > 1 | 0.01 to 0.1 | > 1 | COc1ccc2c(c1)CN(C(=O)OC(C(F)(F)F)C(F)(F)F)C2 [Example 9, 1,1,1,3,3,3-Hexafluoropropan-2-yl 5-methoxyisoindoline-2-carboxylate] |
| > 1 | > 1 | 0.1 to 1 | > 1 | O=C(OC(C(F)(F)F)C(F)(F)F)N1CCc2cc(Br)ccc21 [Example 10, 1,1,1,3,3,3-Hexafluoropropan-2-yl 5-bromoindoline-1-carboxylate] |
| > 1 | > 1 | 0.1 to 1 | > 1 | O=C(OC(C(F)(F)F)C(F)(F)F)N1Cc2cc(Br)cnc2C1 [Example 11, 1,1,1,3,3,3-Hexafluoropropan-2-yl 3-bromo-5,7-dihydro-6H-pyrrolo[3,4-b]pyridine-6-carboxylate] |
| > 1 | > 1 | 0.1 to 1 | > 1 | O=C(OC(C(F)(F)F)C(F)(F)F)N1Cc2cccc(Br)c2C1 [Example 12, 1,1,1,3,3,3-Hexafluoropropan-2-yl 4-bromoisoindoline-2-carboxylate] |
| > 1 | > 1 | > 1 | > 1 | CC1Cc2ccccc2CN1C(=O)OC(C(F)(F)F)C(F)(F)F (stereo not shown) [Example 13, 1,1,1,3,3,3-Hexafluoropropan-2-yl 3-methyl-3,4-dihydroisoquinoline-2(1H)-carboxylate] |
| > 1 | > 1 | 0.1 to 1 | > 1 | O=C(OC(C(F)(F)F)C(F)(F)F)N1Cc2ccc(Cl)nc2C1 [Example 14, 1,1,1,3,3,3-Hexafluoropropan-2-yl-2-chloro-5,7-dihydro-6H-pyrrolo[3,4-b]pyridine-6-carboxylate] |
| > 1 | > 1 | > 1 | > 1 | CC1c2ccc(Br)cc2CN1C(=O)OC(C(F)(F)F)C(F)(F)F (stereo not shown) [Example 15, 1,1,1,3,3,3-Hexafluoropropan-2-yl 5-bromo-1-methylisoindoline-2-carboxylate] |
| > 1 | > 1 | 0.01 to 0.1 | > 1 | O=C(OC(C(F)(F)F)C(F)(F)F)N1CCc2c(Br)cccc2C1 [Example 16, 1,1,1,3,3,3-Hexafluoropropan-2-yl 5-bromo-3,4-dihydroisoquinoline-2(1H)-carboxylate] |
| > 1 | > 1 | 0.01 to 0.1 | > 1 | O=C(OC(C(F)(F)F)C(F)(F)F)N1CCc2cc(Br)ccc2C1 [Example 17, 1,1,1,3,3,3-Hexafluoropropan-2-yl 6-bromo-3,4-dihydroisoquinoline-2(1H)-carboxylate] |
| > 1 | > 1 | 0.1 to 1 | > 1 | O=C(OC(C(F)(F)F)C(F)(F)F)N1CCc2ccc(Br)cc2C1 [Example 18, 1,1,1,3,3,3-Hexafluoropropan-2-yl 7-bromo-3,4-dihydroisoquinoline-2(1H)-carboxylate] |
| > 1 | > 1 | 0.01 to 0.1 | > 1 | COc1cccc2c1CN(C(=O)OC(C(F)(F)F)C(F)(F)F)C2 [Example 19, 1,1,1,3,3,3-Hexafluoropropan-2-yl 4-methoxyisoindoline-2-carboxylate] |
| > 1 | > 1 | 0.1 to 1 | > 1 | CC1CN(C(=O)OC(C(F)(F)F)C(F)(F)F)Cc2ccccc21 (stereo not shown) [Example 20, 1,1,1,3,3,3-Hexafluoropropan-2-yl 4-methyl-3,4-dihydroisoquinoline-2(1H)-carboxylate] |
| > 1 | > 1 | 0.01 to 0.1 | > 1 | COc1cc2c(cc1OC)CN(C(=O)OC(C(F)(F)F)C(F)(F)F)C2 [Example 21, 1,1,1,3,3,3-Hexafluoropropan-2-yl 5,6-dimethoxyisoindoline-2-carboxylate] |
| > 1 | > 1 | > 1 | > 1 | O=C(OC(C(F)(F)F)C(F)(F)F)N1CCCc2ccccc2C1 [Example 24, 1,1,1,3,3,3-Hexafluoropropan-2-yl 1,3,4,5-tetrahydro-2H-benzo[c]azepine-2-carboxylate] |
| > 1 | > 1 | 0.01 to 0.1 | > 1 | COc1ccc(-c2ccc3c(c2)CN(C(=O)OC(C(F)(F)F)C(F)(F)F)C3)cc1F [Example 26, 1,1,1,3,3,3-Hexafluoropropan-2-yl 5-(3-fluoro-4-methoxyphenyl)isoindoline-2-carboxylate] |
